Experimental data as given in ChEMBL document CHEMBL5291721, “A preclinical secondary pharmacology resource illuminates target-adverse drug reaction associations of marketed drugs” (Nat Commun, 2023).

Legend:
[1] = target: T1, Estrogen receptor (Homo sapiens, UniProt P03372); type: functional
T1 sequence (P03372 whole entry): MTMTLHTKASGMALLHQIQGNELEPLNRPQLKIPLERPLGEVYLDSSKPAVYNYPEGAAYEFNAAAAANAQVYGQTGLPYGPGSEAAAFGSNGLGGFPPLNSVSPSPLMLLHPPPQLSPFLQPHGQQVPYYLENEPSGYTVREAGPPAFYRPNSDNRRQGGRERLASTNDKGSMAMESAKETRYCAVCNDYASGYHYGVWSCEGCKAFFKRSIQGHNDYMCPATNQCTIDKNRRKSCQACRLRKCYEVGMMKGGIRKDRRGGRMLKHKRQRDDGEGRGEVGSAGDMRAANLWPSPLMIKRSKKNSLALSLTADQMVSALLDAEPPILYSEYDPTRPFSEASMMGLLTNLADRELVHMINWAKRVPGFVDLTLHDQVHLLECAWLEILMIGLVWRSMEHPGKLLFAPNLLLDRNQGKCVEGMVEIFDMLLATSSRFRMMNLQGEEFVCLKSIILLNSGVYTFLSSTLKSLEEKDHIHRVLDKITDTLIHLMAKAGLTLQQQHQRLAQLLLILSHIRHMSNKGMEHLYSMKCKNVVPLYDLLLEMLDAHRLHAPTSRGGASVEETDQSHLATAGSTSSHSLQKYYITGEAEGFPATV

[2] = target: Vascular endothelial growth factor receptor 2 (Homo sapiens, UniProt P35968); type: functional
Sequence of Vascular endothelial growth factor receptor 2 (P35968 whole entry): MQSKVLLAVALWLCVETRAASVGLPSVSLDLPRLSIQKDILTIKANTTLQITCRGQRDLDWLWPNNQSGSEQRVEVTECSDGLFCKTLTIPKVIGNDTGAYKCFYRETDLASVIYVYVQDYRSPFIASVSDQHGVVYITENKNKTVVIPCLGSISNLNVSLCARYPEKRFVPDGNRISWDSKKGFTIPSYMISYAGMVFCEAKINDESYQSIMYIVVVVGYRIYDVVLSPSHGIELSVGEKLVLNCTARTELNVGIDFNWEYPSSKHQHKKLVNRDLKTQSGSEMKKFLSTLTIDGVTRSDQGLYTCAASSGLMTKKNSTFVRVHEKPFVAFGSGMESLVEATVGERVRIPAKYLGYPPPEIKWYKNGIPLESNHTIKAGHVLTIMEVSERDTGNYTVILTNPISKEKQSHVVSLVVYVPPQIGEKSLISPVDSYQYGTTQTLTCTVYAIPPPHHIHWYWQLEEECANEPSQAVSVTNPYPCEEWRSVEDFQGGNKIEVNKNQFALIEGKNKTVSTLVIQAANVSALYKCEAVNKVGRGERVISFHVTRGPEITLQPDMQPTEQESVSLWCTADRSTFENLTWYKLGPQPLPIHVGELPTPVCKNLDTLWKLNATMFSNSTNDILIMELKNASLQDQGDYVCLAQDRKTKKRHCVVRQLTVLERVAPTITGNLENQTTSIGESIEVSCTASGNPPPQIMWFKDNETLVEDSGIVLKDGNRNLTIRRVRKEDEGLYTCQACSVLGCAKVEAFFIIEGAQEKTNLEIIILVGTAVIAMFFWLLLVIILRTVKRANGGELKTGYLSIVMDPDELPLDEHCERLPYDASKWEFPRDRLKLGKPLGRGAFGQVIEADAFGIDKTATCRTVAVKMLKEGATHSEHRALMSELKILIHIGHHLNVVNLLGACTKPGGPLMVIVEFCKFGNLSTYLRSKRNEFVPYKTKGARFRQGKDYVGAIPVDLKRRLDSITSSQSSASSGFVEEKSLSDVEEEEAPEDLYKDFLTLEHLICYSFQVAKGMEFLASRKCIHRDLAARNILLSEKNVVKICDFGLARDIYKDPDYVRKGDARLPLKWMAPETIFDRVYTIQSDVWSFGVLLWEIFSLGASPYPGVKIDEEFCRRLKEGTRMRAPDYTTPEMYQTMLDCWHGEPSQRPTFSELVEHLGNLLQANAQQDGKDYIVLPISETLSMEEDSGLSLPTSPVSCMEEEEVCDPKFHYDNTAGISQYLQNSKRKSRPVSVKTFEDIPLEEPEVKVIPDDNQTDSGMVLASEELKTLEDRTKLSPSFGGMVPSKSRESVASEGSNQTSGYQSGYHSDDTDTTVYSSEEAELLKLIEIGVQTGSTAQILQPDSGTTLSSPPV

[3] = target: T2, Androgen receptor (Rattus norvegicus, UniProt P15207); type: functional
T2 sequence (P15207 whole entry): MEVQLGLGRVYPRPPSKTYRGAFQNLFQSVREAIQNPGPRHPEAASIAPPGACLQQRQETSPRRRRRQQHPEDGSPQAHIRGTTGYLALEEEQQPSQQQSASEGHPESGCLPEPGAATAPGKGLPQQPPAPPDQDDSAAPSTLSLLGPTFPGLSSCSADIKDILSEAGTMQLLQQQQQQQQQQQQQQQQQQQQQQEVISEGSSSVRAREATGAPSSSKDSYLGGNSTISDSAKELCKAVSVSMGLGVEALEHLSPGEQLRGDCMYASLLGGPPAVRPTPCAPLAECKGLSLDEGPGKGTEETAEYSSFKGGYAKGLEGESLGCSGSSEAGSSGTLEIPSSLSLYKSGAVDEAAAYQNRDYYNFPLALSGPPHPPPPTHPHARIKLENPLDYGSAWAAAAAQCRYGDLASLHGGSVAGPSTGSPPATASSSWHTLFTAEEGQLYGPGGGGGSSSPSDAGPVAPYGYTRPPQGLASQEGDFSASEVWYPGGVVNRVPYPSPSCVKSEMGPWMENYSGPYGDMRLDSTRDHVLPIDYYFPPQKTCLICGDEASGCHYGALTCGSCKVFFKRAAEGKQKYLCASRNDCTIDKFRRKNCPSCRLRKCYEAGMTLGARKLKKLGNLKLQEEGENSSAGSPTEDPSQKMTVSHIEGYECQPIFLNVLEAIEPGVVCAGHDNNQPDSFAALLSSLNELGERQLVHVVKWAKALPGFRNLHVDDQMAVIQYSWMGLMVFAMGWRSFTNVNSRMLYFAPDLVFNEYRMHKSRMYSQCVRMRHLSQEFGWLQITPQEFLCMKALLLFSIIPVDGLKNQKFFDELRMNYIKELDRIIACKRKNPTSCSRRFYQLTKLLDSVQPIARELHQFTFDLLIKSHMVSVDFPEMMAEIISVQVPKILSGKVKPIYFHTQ

[4] = target: T2, Androgen receptor; type: functional; remark: listed apart in the source
[5] = target: 5-hydroxytryptamine receptor 2A (Homo sapiens, UniProt P28223)
Sequence of 5-hydroxytryptamine receptor 2A (P28223 whole entry): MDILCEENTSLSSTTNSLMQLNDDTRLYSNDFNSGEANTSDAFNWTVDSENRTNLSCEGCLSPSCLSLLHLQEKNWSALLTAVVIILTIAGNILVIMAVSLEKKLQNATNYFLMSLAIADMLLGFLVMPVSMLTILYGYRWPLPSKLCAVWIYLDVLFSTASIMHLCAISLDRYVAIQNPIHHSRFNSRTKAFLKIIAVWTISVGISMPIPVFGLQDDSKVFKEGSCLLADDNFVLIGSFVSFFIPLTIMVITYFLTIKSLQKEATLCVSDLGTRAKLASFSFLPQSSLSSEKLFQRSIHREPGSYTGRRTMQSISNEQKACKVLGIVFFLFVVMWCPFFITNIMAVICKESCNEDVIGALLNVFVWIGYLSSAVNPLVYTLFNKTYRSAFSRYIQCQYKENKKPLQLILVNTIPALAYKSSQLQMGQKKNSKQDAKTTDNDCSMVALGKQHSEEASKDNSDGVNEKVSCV
Further: assay procedure not described here.

CO/N=C(\C(=O)N[C@@H]1C(=O)N2C(C(=O)[O-])=C(C[N+]3(C)CCCC3)CS[C@H]12)c1csc(N)n1
AC50 [1]: > 300 µM
AC50 [2]: > 300 µM
AC50 [3]: > 30 µM
AC50 [4]: > 300 µM

COC(=O)[C@@H]1CC2=CC(=O)CC[C@]2(C)[C@@]23O[C@@H]2C[C@@]2(C)[C@@H](CC[C@@]24CCC(=O)O4)[C@H]13 [EPLERENONE]
AC50 [5]: > 10 µM
AC50 [1]: > 30 µM
AC50 [2]: > 30 µM
